Source: US9974800B2 (priority 2014, dated 2018)

Tested on: Ebola virus
Assay type: cell-based
Details: alone

CC[C@H]1OC(=O)[C@H](C)[C@@H](O[C@H]2C[C@@](C)(OC)[C@@H](O)[C@H](C)O2)[C@H](C)[C@@H](O[C@@H]2O[C@H](C)C[C@H](N(C)C)[C@H]2O)[C@](C)(OC)C[C@@H](C)C(=O)[C@H](C)[C@@H](O)[C@]1(C)O [Clarithromycin]
inhibit EBOV infection in primary macrophages: can inhibit EBOV infection
